Assay results: patent US4464385A, “Treatment of diabetic complications with hydantoins” (Alcon Laboratories, Inc., priority 1982, dated 1984)

Assays:
[1] = molecular target: T1, aldose reductase enzyme obtained from human placenta (Homo sapiens, UniProt P15121); assay: Inhibition of partially purified aldose reductase from human placenta; assay type: biochemical; settings: for IC50: HUMAN, human placenta enzyme, read-out: IC50 (concentration of drug that inhibits 50% of the enzyme activity)
T1 construct: partially purified aldose reductase enzyme obtained from rat lens or human placenta; from tissue; host or cells: human placenta
Protocol: The spiro-hydantoin compounds of Preparations C and D were tested for their ability to reduce or inhibit aldose reductase enzyme activity via the procedures of P. F. Kador et. al. as described in Biophysical Chemistry, 8 (1978) 81-85 and P. F. Kador et. al. as described in Documenta Ophthamologicia, 18 (1979) 117. In every case the […] employed was partially purified aldose reductase enzyme obtained from rat lens or human placenta.

[2] = molecular target: T2, aldose reductase enzyme obtained from rat lens (Rattus norvegicus, UniProt P07943); assay: Inhibition of partially purified aldose reductase from rat lens; assay type: biochemical; settings: read-out: IC50 (concentration of drug that inhibits 50% of the enzyme activity)
T2 construct: partially purified aldose reductase enzyme obtained from rat lens; from tissue; host or cells: rat lens
Excerpt: In every case the substrate employed was partially purified aldose reductase enzyme obtained from rat lens or human placenta.

[3] = test system: membrane bound cytochrome containing oxidoreductase enzymes; assay: In vivo conversion of the methylthio group to methylsulfinyl; settings: enzymes common to liver, kidney and lung

Compound: C[S+]([O-])c1ccc2c(c1)C1(CCO2)NC(=O)NC1=O (centres unmarked) [D, spiro-(6-methylsulfinylchroman-4,4'-imidazolidine)-2',5'-dione]
- IC50 [1]: 12000 nM
- in vitro inhibition of human placental aldose reductase ([1]; in vitro): inhibit human placental aldose reductase

Compound: dl-spiro-(6-methylthio-chroman-4,4'-imidazolidine)-2',5'-dione
- IC50 [2]: 270 nM
- IC50 [1]: 660 nM
- conversion of methylthio group to methylsulfinyl derivative [3]: converted to the methylsulfinyl derivative
